Read-outs that look alike come from different tables or passages of the source.
What was measured:
[1] = in vivo; settings: Sprague-Dawley, rat
Method: (§1) There were 8 rats in each group tested.
(§2) Sedative effects (effects on motor activity) were measured in a polypropylene animal cage (38×22×15 cm) with a transparent polypropylene lid by Photobeam Activity System (PAS, Cage Rack, San Diego Instruments, San Diego, USA). The system consists of 16 separate enclosures connected to a computer control unit. There were three photobeams in each enclosure. The enclosures surrounded the cage at the height of 5 cm. The breaking of beams was counted as locomotor activity.
(§3) The analgesic activity and sedative effect after intravenous (to the tail vein) and subcutaneous administration were studied according to the methods described in Example 2.

[2] = system: rat; assay: in vivo
Method: as §1, §2, §3

[3] = physchem
Method: The hydrochloride salts of the above compounds were shaken for 90 minutes in a separatory funnel at room temperature with equal volumes (1:1, v/v) of an organic phase (water saturated 1-octanol) and an aqueous solution (0.1 M HCI or 67 mM phosphate buffer pH 7.4), separating the two phases. The quantitations of the amounts of the studied compounds were performed by the RP-HPLC (reverse phase high pressure liquid chromatography) technique. […] As a mobile phase, methanol: 15 mM phosphate buffer pH2 at the ratio 50:50 (v/v) was used.
The partition coefficient (P) is a ratio of the equilibrium concentrations of a solute in a lipophilic environment (1-octanol) and water (P=coct/cwater). The logarithm of the partition coefficient (logP) is used as a lipophilicity parameter for a neutral molecule. D is the partition coefficient measured at a pH where the molecules are partly or totally ionized.

[4] = system: rat; assay: Motor coordination: rotarod treadmill; settings: intrathecal, 15 minutes after injection
Text: (§4) The rats (Sprague-Dawley, B&K, Sollentuna, Sweden) were anaesthetized by midazolam and fentanyl-fluanisone combination anaesthesia and then chronically catheterized according to the method described by Yaksh and Rudy (Physiology & Behaviour 17,1031-1036, 1976). Briefly, the atlanto-occipital membrane of the spine (directly below the skull) was incised. A polyethylene catheter (PE10 Intramedic, USA) filled with sterile saline was carefully and slowly pushed 8 cm into the spinal cavity. The end of the catheter is known to reach the close proximity of the lumbar enlargement of the spine. The location of the end of the catheter was tested by administering 0.5 mg lidocain approximately 3 days after catheterization. If both hindlegs were paralyzed, the rat was used in the drug tests.
(§5) The effect on motor coordination was evaluated by a rotarod treadmill for rats (Ugo Basile, Italy). It consists of four drums (diameter of 70 mm) separated by five flanges. The drums were adjusted to rotate 4 revolutions per minute. The rod was rotated against the direction of the rat, so it had to walk forward to stay on the rod. […]
(§6) Fifteen minutes after the drug injection, the rat was placed on the rotarod apparatus, and the falling time was measured. […] The dose-response curves were drawn on a logarithmic scale, and the ED50 values were determined graphically from these.

[5] = system: rat; assay: Tail-flick analgesia test; type: in vivo
Method: as §1
Tail-flick analgesia was tested by a tail-flick analgesy meter (Ugo Basile, Italy). The analgesia testing was done no earlier than four days after the catheterization. The rats were always habituated to the immobilization chambers that were used in the analgesia measurements. The tail of the rat was outside the chamber and it was placed on the heating spot of the apparatus. Thus, the hot infrared beam would hit the tail. When the rat reacted and moved the tail away from the beam, the analgesy meter automatically measured the latency of the tail-withdrawal. The tail-flick measurement was always repeated three times, one after another, to diminish the effect of a possible unspecific reaction. […] The maximal latency (cut-off time) was set to 5 seconds in order to prevent burns of the tail. The predrug tail-flick latencies were first measured, and then the rats were administered 10 μl of the drug solution by a Hamilton syringe. Immediately thereafter the catheter was washed with 10 μl of sterile saline, and the tip was sealed by a lighter. The analgesia was tested after 30 minutes from the administration of the drug by measuring tail-flick analgesia as described above.
The tail-flick analgesia data were represented as MPE% values (maximum possible effect %). The tail-flick latencies (mean of three measurements) were calculated as MPE% values as follows: (postdrug latency−predrug latency)/(cut-off time−predrug latency)×100%. The dose-response curves were drawn of the MPE% values, and the dose was on a logarithmic scale (see FIG. 1). […] 1.03 (San Diego, USA) software.
as §3

[6] = system: rat; settings: Sprague-Dawley, in vivo
Text: as §4
Effects on gastrointestinal motility were measured in separate animals as follows (the charcoal propulsion test). The rats (8/group) were fasted overnight and were randomized according to the latin square design. 30 minutes after the administration of the drugs, a 10% charcoal suspension in 0.25% Na-carboxy-methylcellulose was administered perorally by a gavage. […] The distance of the charcoal suspension from the pylorus in the intestine was measured. […] The ED50 value of the dose-response graph was determined by the Graph Pad Prism v. […]

[7] = system: rat; settings: Sprague-Dawley, in vivo, 15 min
Text: as §4, §5, §6

Q: Which ED50 at 10 min [1] does the source give for `Oc1ccc2c(c1)C(Cc1c[nH]cn1)CC2` (centres unmarked) [Compound A, 3-(1H-imidazol-4-ylmethyl)-indan-5-ol] here?
A: 0.09 mg/kg

Q: And the ED50 at 10 min ([1]; sc)?
A: 0.08 mg/kg

Q: And the “Sedation at an analgesic dose” value [2]?
A: not to induce sedation

Q: And the logD at 90 min ([3]; pH 1)?
A: -0.69

Q: And the logD at 90 min ([3]; pH 7.4)?
A: 1.91

Q: And the ED50 Loss of motor coordin. (decrease in rotarod performance) [4]?
A: > 30 µg/rat

Q: What about the ED50 ([5]; central, intrathecal (it), Table 2 result per rat multiplied by 3) of the same compound?
A: 0.0021 mg/kg

Q: And the “ED50 Analgesia (tail-flick test)” value ([5]; intrathecal, 30 minutes after administration)?
A: 0.7 µg/rat

Q: What about the ED50 ([5]; intravenous (iv)) of the same compound?
A: > 0.03 mg/kg

Q: What about the ED50 ([5]; subcutaneous (sc)) of the same compound?
A: > 0.3 mg/kg

Q: What about the ED50 Inhib. of GI motility [6] of the same compound?
A: 5.7 µg/rat

Q: What does the source list for `Clc1cccc(Cl)c1N=C1NCCN1` [Compound B, clonidine, reference compound]?
A: ED50 Loss of motor coordin. (decrease in rotarod performance) [7]: >10 g/rat; ED50 Inhib. of GI motility [6]: 3.5 µg/rat

Q: Which “ED50 Analgesia (tail-flick test)” value ([5]; in vivo) does the source give for “clonidine [Compound B, reference compound]” here?
A: 6.4 µg/rat
